Broadly, the Ki is the equilibrium dissociation constant of an inhibitor or competing ligand from its target. Low values mean a stronger hold on the target, high ones a looser hold on the target. What is called inhibition is the relative decrease from the control value, in per cent. Usually % inhibition stands for the relative decrease from the control value, in per cent.

The values below come from patent US20130131075A1, “NEW COMPOUNDS” (Boehringer Ingelheim International GmbH, priority 2009, published 2013).

The target in the test is T1, cynomolgus BK1-receptor (Macaca fascicularis, UniProt Q3BCU0).
T1 construct: expressed in transfected cells; host or cells: CHO cells (homogenate)
T1 sequence (Q3BCU0 1-352): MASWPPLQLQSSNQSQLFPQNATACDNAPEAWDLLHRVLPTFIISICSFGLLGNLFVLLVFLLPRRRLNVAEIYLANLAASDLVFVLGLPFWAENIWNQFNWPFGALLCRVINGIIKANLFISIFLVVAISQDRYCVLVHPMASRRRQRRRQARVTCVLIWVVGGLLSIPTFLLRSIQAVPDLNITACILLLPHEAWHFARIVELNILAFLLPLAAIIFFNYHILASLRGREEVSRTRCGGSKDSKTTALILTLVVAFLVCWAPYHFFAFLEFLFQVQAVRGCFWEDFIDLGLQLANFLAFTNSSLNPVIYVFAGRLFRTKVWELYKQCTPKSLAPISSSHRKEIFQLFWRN
The experiment in a line: cynoBK1-receptor binding assay. Particulars: CHO cells expressing cynomolgus BK1-receptor, radioligand kallidine (DesArg10,Leu9). As to the method: Description of the Method of Binding the cynoBK1-Receptor
CHO cells that express the cynomolgus BK1-receptor are cultivated in “HAM'S F-12 Medium”. The medium is removed from confluent cultures, the cells are washed with PBS buffer, scraped off or detached using Versene and isolated by centrifuging. Then the cells are homogenised in suspension, the homogenate is centrifuged and resuspended. After the protein content has been determined 200 μl of the homogenate (50 to 250 μg protein/assay) are incubated for 60-180 minutes at ambient temperature with 0.5 to 5.0 nM kallidine (DesArg10,Leu9), [3,4-Prolyl-3,43H(N)] and increasing concentrations of the test substance in a total volume of 250 μl. The incubation is stopped by rapid filtration through GF/B glass fibre filters that have been pre-treated with polyethyleneimine (0.3%). The radioactivity bound to the protein is measured with a TopCount NXT. The radioactivity bound in the presence of 1.0 μM kallidine (DesArg10) is defined as non-specific binding. The concentration binding curve may be analysed using computer-aided non-linear curve fitting to determine the corresponding Ki value for the test substance.
Test results of the cynoBK1-receptor binding assay: […]

`N#Cc1cccc(F)c1Nc1ccc(CNC(=O)C2(NC(=O)c3cncnc3)CC2)cc1` [(116)] gave a Ki greater than 500 nM. The inhibition at 10 µM (at 10 μgmol/L) is 83%. Consider `CCOc1ccc(Nc2ccc(CNC(=O)C3(NC(=O)c4cncnc4)CC3)cc2)c(C(F)(F)F)c1` [(117)], for which affinity was put at a Ki of 2.8 nM. The inhibition at 10 µM (at 10 μgmol/L) was determined as 111%.

Regarding `O=C(NC1(C(=O)NCc2ccc(Nc3ccc(OCC(F)F)cc3C(F)(F)F)cc2)CC1)c1cncnc1` [(118)], the Ki was found to be 64 nM. Under “at 10 μgmol/L”, the inhibition at 10 µM is 109%.

Consider `CC(C)Oc1ccc(Nc2ccc(CNC(=O)C3(NC(=O)c4cncnc4)CC3)cc2)c(C(F)(F)F)c1` [(119)], for which the affinity, expressed as Ki, was 375 nM. The inhibition at 10 µM (at 10 μgmol/L) came to 82%. Molecule `O=C(NC1(C(=O)NCc2ncc(Nc3c(F)cccc3C(F)(F)F)cc2F)CC1)c1cncnc1` [(120)] returned an inhibition constant (Ki) of 2.4 nM. Also, the inhibition at 10 µM (at 10 μgmol/L) was 113%. For the molecule `CC(NC(=O)C1(NC(=O)c2cncnc2)CC1)c1ncc(Nc2c(F)cccc2C(F)(F)F)cc1F` (stereo not shown) [(121)], the inhibition constant Ki was 2 nM. For the same molecule, the inhibition at 10 µM (at 10 μgmol/L) is 113%.

Molecule `CC(NC(=O)C1(NC(=O)c2cncc(N)c2)CC1)c1ncc(Nc2c(F)cccc2C(F)(F)F)cc1F` (stereo not shown) [(122)] returned a Ki of 6.3 nM. Moreover, where the note is “at 10 μgmol/L”, the inhibition at 10 µM is 113%. `CC(NC(=O)C1(NC(=O)c2cncnc2)CC1)c1ccc(Nc2c(F)cccc2C(F)(F)F)cn1` (stereo not shown) [(123)] yielded a Ki of 8.3 nM. For the same molecule, for the setting “at 10 μgmol/L”, the inhibition at 10 µM is 110%. For the molecule `CC(NC(=O)C1(NC(=O)c2cncc(N)c2)CC1)c1ccc(Nc2c(F)cccc2C(F)(F)F)cn1` (stereo not shown) [(124)], the Ki turned out to be 33 nM. In addition, the inhibition at 10 µM (at 10 μgmol/L) came out at 112%. The molecule `Nc1cncc(C(=O)NC2(C(=O)NCc3ncc(Nc4c(F)cccc4C(F)(F)F)cc3F)CC2)c1` [(125)] yielded a Ki of 12 nM. The inhibition at 10 µM (at 10 μgmol/L) amounted to 108%.

The molecule `O=C(NC1(C(=O)NCc2ccc(Nc3ccc(Br)cc3Cl)cn2)CC1)c1cncnc1` [(126)] had an inhibition constant Ki of 46 nM. Besides, the inhibition at 10 µM (at 10 μgmol/L) is 103%. As for `O=C(N[C@@]1(C(=O)NCc2ccc(Nc3ccccc3C(F)(F)F)cc2)CCOC1)c1cncnc1` [(127)], for the setting “at 10 μgmol/L”, the inhibition at 10 µM turned out to be 108%. In turn, `O=C(NC1(C(=O)NCc2ncc(Nc3c(F)cccc3C(F)(F)F)cc2F)CC1)c1ccnnc1` [(128)] had a Ki of 84 nM. Besides, the inhibition at 10 µM (at 10 μgmol/L) worked out at 103%. In the same order, the values of `COc1ncc(C(=O)NC2(C(=O)NCc3ncc(Nc4c(F)cccc4C(F)(F)F)cc3F)CC2)cn1` [(129)] are 11 nM and 107%.

As to `O=C(NC1(C(=O)NCc2ncc(Nc3c(F)cccc3C(F)(F)F)cc2F)CC1)c1ccnc(O)c1` [(130)], affinity was put at a Ki of 101 nM. For the same molecule, where the note is “at 10 μgmol/L”, the inhibition at 10 µM was 101%. The molecule `Cc1cncc(C(=O)NC2(C(=O)NCc3ncc(Nc4c(F)cccc4C(F)(F)F)cc3F)CC2)c1` [(131)] displayed an inhibition constant Ki of 33 nM. In addition, for the setting “at 10 μgmol/L”, the inhibition at 10 µM worked out at 105%.

Regarding `Cn1ccc(C(=O)NC2(C(=O)NCc3ncc(Nc4c(F)cccc4C(F)(F)F)cc3F)CC2)cc1=O` [(132)], the Ki is 180 nM. Further, the inhibition at 10 µM (at 10 μgmol/L) was determined as 98%.

With `CNc1ncc(C(=O)NC2(C(=O)NCc3ncc(Nc4c(F)cccc4C(F)(F)F)cc3F)CC2)cn1` [(133)], the inhibition at 10 µM (at 10 μgmol/L) was 101%.

For `Cc1ncc(C(=O)NC2(C(=O)NCc3ncc(Nc4c(F)cccc4C(F)(F)F)cc3F)CC2)cn1` [(134)], the affinity, expressed as Ki, was 4.7 nM. In addition, the inhibition at 10 µM (at 10 μgmol/L) was determined as 101%. Molecule `O=C(NC1(C(=O)NCc2ncc(Nc3c(F)cccc3C(F)(F)F)cc2F)CC1)c1cncs1` [(135)] displayed a Ki of 15 nM. Further, the inhibition at 10 µM (at 10 μgmol/L) was determined as 106%. In turn, `O=C(NC1(C(=O)NCc2ncc(Nc3c(F)cccc3C(F)(F)F)cc2F)CC1)c1cccc(O)n1` [(136)] gave a Ki of 42 nM. Besides, the inhibition at 10 µM (at 10 μgmol/L) is 104%. `COc1ncc(C(=O)NC2(C(=O)NCc3ccc(Nc4ccc(Br)cc4C(F)(F)F)cn3)CC2)cn1` [(138)] showed a Ki of 6.7 nM. Where the note is “at 10 μgmol/L”, the inhibition at 10 µM stood at 107%.

Consider `Cc1ncc(C(=O)NC2(C(=O)NCc3ccc(Nc4ccc(Br)cc4C(F)(F)F)cn3)CC2)cn1` [(139)], for which the Ki was 2.8 nM. In addition, the inhibition at 10 µM (at 10 μgmol/L) stood at 107%. `O=C(NC1(C(=O)NCc2ccc(Nc3ccc(Br)cc3C(F)(F)F)cn2)CC1)c1cccc(O)n1` [(140)]: the affinity corresponds to a Ki of 14 nM. Besides, under “at 10 μgmol/L”, the inhibition at 10 µM is 106%. Take `O=C(NC1(C(=O)NCc2ccc(Nc3ccc(Br)cc3C(F)(F)F)cn2)CC1)c1cncc(O)c1` [(141)]: the Ki was 7.6 nM. Also, the inhibition at 10 µM (at 10 μgmol/L) was 100%. In turn, `Nc1cncc(C(=O)NC2(C(=O)NCc3ccc(Nc4ccc(F)cc4C(F)(F)F)cn3)CC2)c1` [(142)] registered an inhibitory constant (Ki) of 12 nM. Moreover, the inhibition at 10 µM (at 10 μgmol/L) was determined as 106%.

`O=C(NC1(C(=O)NCc2ccc(Nc3ccc(F)cc3C(F)(F)F)cn2)CC1)c1cnc2[nH]cnc2c1` [(143)]: the Ki came out at 12 nM. Besides, for the setting “at 10 μgmol/L”, the inhibition at 10 µM worked out at 106%. For `Nc1cncc(C(=O)NC2(C(=O)NCc3ccc(Nc4ccc(F)cc4C(F)(F)F)cn3)CC2)n1` [(144)], in that order: 126 nM and 97%.

`CNc1ncc(C(=O)NC2(C(=O)NCc3ccc(Nc4ccc(Cl)cc4C(F)(F)F)cn3)CC2)cn1` [(145)] displayed a Ki of 2.8 nM. Also, the inhibition at 10 µM (at 10 μgmol/L) was 99%. Take `COc1ncc(C(=O)NC2(C(=O)NCc3ccc(Nc4ccc(Cl)cc4C(F)(F)F)cn3)CC2)cn1` [(146)]: the Ki worked out at 7.6 nM. The inhibition at 10 µM (at 10 μgmol/L) is 107%.

`Cc1ncc(C(=O)NC2(C(=O)NCc3ccc(Nc4ccc(Cl)cc4C(F)(F)F)cn3)CC2)cn1` [(147)] displayed an inhibition constant Ki of 4.4 nM. Moreover, the inhibition at 10 µM (at 10 μgmol/L) worked out at 107%. `Cn1ccc(C(=O)NC2(C(=O)NCc3ccc(Nc4ccc(Cl)cc4C(F)(F)F)cn3)CC2)cc1=O` [(148)]: the inhibition at 10 µM (at 10 μgmol/L) was 96%. In the case of `O=C(NC1(C(=O)NCc2ccc(Nc3ccc(Cl)cc3C(F)(F)F)cn2)CC1)c1cncs1` [(149)], the inhibition at 10 µM (at 10 μgmol/L) was determined as 100%. With `Nc1cc(C(=O)NC2(C(=O)NCc3ccc(Nc4ccc(F)cc4C(F)(F)F)cn3)CC2)on1` [(150)], the Ki turned out to be 37 nM. For the same molecule, the inhibition at 10 µM (at 10 μgmol/L) amounted to 105%. In turn, `O=C(NC1(C(=O)NCc2ncc(Nc3ccc(F)cc3C(F)(F)F)cc2F)CC1)c1cncnc1` [(151)] displayed a Ki of 1.8 nM. Besides, where the note is “at 10 μgmol/L”, the inhibition at 10 µM is 107%. For `Nc1cncc(C(=O)NC2(C(=O)NCc3ncc(Nc4ccc(F)cc4C(F)(F)F)cc3F)CC2)c1` [(152)], in that order: 3.2 nM and 105%. Regarding `O=C(N[C@@]1(C(=O)NCc2ncc(Nc3ccc(F)cc3C(F)(F)F)cc2F)CCOC1)c1cncnc1` [(153)], the affinity corresponds to a Ki of 9.7 nM. Also, under “at 10 μgmol/L”, the inhibition at 10 µM stood at 106%. In turn, `Nc1cncc(C(=O)N[C@@]2(C(=O)NCc3ncc(Nc4c(F)cccc4C(F)(F)F)cc3F)CCOC2)c1` [(154)] came in with an inhibition constant Ki of 89 nM. Also, the inhibition at 10 µM (at 10 μgmol/L) came to 101%. `O=C(N[C@@]1(C(=O)NCc2ccc(Nc3ccccc3C(F)(F)F)cc2)CCOC1)c1cncnc1` [(155)]: the “% inhibition at 10 μgmol/L” value (at 10 μgmol/L) stood at 101%. With `Nc1cncc(C(=O)N[C@@]2(C(=O)NCc3ncc(Nc4ccc(F)cc4C(F)(F)F)cc3F)CCOC2)c1` [(156)], the affinity, expressed as Ki, was 8.5 nM. The inhibition at 10 µM (at 10 μgmol/L) turned out to be 107%.

`Nc1cncc(C(=O)N[C@@]2(C(=O)NCc3ccc(Nc4ccc(F)cc4C(F)(F)F)cn3)CCOC2)c1` [(157)]: the inhibition constant Ki worked out at 56 nM. Also, the inhibition at 10 µM (at 10 μgmol/L) amounted to 96%. Molecule `O=C(N[C@@]1(C(=O)NCc2ncc(Nc3c(F)cccc3C(F)(F)F)cc2F)CCOC1)c1cncnc1` [(158)] came in with a Ki of 115 nM. Moreover, the inhibition at 10 µM (at 10 μgmol/L) came out at 101%.

`O=C(N[C@@]1(C(=O)NCc2ccc(Nc3ccc(F)cc3C(F)(F)F)cn2)CCOC1)c1cnc2[nH]cnc2c1` [(159)] came in with a Ki of 97 nM. For the setting “at 10 μgmol/L”, the inhibition at 10 µM stood at 91%. `N#Cc1cc(F)ccc1Nc1cnc(CNC(=O)C2(NC(=O)c3cncnc3)CC2)c(F)c1` [(160)] registered a Ki of 17 nM. Also, where the note is “at 10 μgmol/L”, the inhibition at 10 µM was 106%. `N#Cc1cc(OC(F)(F)F)ccc1Nc1ccc(CNC(=O)C2(NC(=O)c3cncnc3)CC2)cc1` [(161)] returned a Ki greater than 500 nM. Under “at 10 μgmol/L”, the inhibition at 10 µM is 69%. `N#Cc1cc(Cl)ccc1Nc1ccc(CNC(=O)C2(NC(=O)c3cncnc3)CC2)cc1` [(162)] gave a Ki of 17 nM. For the same molecule, the inhibition at 10 µM (at 10 μgmol/L) amounted to 104%. In turn, `CC(NC(=O)[C@]1(NC(=O)c2cncnc2)CCOC1)c1ccc(Nc2ccc(Cl)cc2C(F)(F)F)cn1` (stereo partly shown) [(163)] registered an inhibitory constant (Ki) of 288 nM. For the same molecule, the inhibition at 10 µM (at 10 μgmol/L) was 87%. `CC(NC(=O)C1(NC(=O)c2cncnc2)CC1)c1ccc(Nc2ccc(Cl)cc2C(F)(F)F)cn1` (stereo not shown) [(164)] showed a Ki of 3.4 nM. Also, the inhibition at 10 µM (at 10 μgmol/L) was found to be 106%.
